{"source": "patent US20030077328A1", "about": "“Method and composition for inhibiting post-surgical adhesions” (priority 1995, published 2003)", "origin": "cited, not measured here", "system": "post-traumatic adhesion formation", "conditions": "hamster; 0.1 to 10 mg/kg subcutaneously at 12-hour intervals", "data": [{"smiles": "CC(=O)CCCCn1c(=O)c2c(ncn2C)n(C)c1=O", "note": "[pentoxifylline]", "values": [{"measurement": "protection against post-traumatic adhesion formation", "result": "provide protection against post-traumatic adhesion formation"}]}]}
